Assay [1] deals with Matrix metalloproteinase-14 (Homo sapiens, UniProt P50281). Description: Inhibition of MMP14.
In assay [2] the target is T1, Interstitial collagenase (Homo sapiens, UniProt P03956).
T1 sequence (P03956 whole entry): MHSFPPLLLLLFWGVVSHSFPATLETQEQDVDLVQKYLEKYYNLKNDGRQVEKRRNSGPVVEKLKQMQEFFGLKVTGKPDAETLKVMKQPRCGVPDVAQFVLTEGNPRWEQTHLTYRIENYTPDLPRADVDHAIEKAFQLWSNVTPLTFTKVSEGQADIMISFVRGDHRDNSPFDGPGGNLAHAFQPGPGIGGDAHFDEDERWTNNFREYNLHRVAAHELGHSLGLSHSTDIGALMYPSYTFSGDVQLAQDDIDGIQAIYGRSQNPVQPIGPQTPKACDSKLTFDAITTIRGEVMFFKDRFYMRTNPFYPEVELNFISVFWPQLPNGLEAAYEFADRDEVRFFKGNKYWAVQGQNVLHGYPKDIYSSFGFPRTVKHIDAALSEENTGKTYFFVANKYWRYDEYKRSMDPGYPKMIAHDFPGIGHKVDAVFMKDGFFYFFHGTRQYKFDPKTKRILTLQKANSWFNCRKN
Description: Inhibition of MMP1.

For assay [3], the system named is HEK293. Description: Inhibition of beta-amyloid peptide production in HEK293 cell line. The class given is functional, cell-based. As to conditions: Homo sapiens.
For assay [4], the target named is Stromelysin-2 (Homo sapiens, UniProt P09238). Description: Inhibition of MMP10.
Chain of Stromelysin-2 (P09238 whole entry): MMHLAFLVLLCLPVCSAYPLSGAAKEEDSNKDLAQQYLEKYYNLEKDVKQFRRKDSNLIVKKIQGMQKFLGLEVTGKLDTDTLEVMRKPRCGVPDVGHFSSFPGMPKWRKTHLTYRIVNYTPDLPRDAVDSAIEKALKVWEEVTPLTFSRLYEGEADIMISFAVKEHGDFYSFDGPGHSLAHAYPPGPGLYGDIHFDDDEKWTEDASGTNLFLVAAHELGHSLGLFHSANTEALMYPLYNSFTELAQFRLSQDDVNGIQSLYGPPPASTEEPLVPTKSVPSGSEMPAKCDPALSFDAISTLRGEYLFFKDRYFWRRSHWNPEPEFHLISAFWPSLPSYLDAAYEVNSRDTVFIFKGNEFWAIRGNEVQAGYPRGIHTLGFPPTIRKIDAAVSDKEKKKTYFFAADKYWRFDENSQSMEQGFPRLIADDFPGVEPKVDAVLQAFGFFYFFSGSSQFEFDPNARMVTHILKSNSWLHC
The target in assay [5] is T2, Matrilysin (Homo sapiens, UniProt P09237).
T2 sequence (P09237 whole entry): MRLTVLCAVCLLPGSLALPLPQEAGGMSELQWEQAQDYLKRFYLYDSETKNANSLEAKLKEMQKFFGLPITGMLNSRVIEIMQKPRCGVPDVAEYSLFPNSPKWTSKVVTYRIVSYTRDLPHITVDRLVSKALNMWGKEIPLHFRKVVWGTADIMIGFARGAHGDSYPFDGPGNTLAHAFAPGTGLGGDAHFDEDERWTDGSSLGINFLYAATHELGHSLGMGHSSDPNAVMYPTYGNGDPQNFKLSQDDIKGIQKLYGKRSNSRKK
Description: Inhibition of MMP7.

In assay [6] the target is 72 kDa type IV collagenase (Homo sapiens, UniProt P08253). Description: Inhibition of MMP2.
Chain of 72 kDa type IV collagenase (P08253 whole entry, the tested form may be a part): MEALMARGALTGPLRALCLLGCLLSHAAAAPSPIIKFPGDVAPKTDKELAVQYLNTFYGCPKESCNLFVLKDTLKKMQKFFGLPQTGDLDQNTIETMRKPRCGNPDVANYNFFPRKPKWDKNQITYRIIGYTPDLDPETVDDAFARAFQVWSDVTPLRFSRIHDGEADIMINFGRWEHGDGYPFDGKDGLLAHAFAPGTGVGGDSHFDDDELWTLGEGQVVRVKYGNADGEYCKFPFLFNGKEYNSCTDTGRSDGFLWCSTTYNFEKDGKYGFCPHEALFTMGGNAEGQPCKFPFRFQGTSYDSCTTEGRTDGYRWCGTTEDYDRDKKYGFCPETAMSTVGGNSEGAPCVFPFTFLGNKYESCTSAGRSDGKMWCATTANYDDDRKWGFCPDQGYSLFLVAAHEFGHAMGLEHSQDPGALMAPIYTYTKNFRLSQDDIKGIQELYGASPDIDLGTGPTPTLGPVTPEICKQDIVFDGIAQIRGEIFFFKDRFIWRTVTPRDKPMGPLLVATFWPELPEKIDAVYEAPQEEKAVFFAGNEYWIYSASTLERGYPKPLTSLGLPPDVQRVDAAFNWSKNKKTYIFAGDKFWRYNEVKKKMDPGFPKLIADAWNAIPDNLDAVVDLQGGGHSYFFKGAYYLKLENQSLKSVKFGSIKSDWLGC
Assay [7] addresses Disintegrin and metalloproteinase domain-containing protein 17 (Homo sapiens, UniProt P78536).
In assay [8] the target is Matrix metalloproteinase-9 (Homo sapiens, UniProt P14780). Description: Inhibition of MMP9.
Chain of Matrix metalloproteinase-9 (P14780 whole entry): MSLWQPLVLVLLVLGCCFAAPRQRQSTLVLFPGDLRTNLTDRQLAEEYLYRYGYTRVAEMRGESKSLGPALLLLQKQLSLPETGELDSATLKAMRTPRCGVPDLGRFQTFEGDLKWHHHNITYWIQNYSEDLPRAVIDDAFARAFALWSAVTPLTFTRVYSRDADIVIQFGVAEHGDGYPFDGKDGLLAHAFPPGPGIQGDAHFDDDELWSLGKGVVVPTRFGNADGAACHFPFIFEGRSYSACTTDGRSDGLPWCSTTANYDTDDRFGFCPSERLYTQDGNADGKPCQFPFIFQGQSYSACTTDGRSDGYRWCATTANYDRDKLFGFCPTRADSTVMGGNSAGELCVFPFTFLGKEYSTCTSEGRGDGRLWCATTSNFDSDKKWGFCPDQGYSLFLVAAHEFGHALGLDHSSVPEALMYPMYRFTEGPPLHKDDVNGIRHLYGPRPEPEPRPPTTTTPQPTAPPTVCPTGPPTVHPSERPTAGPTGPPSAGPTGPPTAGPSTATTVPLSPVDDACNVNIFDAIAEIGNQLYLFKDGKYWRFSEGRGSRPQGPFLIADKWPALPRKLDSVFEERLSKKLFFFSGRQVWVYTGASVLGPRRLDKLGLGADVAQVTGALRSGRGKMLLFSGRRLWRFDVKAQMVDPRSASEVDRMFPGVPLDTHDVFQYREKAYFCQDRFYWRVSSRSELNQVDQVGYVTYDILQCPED
For assay [9], the target named is Collagenase 3 (Homo sapiens, UniProt P45452). Description: Inhibition of MMP13.

Chain of Disintegrin and metalloproteinase domain-containing protein 17 (P78536 whole entry, the tested form may be a part): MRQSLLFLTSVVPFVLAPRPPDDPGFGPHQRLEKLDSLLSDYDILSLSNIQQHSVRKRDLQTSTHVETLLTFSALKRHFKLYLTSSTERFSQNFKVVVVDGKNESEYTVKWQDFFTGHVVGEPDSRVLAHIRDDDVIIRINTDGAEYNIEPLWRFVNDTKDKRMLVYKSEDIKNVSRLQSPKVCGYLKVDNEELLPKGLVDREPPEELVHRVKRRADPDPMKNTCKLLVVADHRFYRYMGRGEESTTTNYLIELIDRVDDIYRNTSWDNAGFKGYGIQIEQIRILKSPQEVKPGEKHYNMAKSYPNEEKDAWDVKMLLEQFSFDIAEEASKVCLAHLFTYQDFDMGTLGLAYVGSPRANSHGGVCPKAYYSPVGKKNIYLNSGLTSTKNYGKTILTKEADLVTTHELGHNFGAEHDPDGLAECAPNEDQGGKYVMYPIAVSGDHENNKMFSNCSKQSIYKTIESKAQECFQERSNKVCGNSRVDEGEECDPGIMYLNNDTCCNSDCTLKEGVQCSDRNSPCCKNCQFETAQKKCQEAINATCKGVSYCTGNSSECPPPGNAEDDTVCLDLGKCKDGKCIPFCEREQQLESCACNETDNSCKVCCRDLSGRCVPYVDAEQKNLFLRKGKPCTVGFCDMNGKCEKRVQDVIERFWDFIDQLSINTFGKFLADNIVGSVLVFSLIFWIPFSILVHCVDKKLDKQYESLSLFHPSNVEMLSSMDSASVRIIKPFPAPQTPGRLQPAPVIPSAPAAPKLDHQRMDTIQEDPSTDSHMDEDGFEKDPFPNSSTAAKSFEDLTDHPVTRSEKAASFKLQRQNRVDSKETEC

Regarding `CCC[C@H](C(=O)NO)[C@@H](CC(C)C)C(=O)N[C@H]1CCCCN(Cc2cccc(Oc3ccccc3)c2)C1=O`, the inhibition constant (Ki) came to 1200 nM in assay [1]; 21 nM in assay [2]; 190 nM in [4]; 660 nM in [5]; 7 nM in assay [6]; 4 nM in [7]. The Ki was 5 nM in [8] and 10 nM in assay [9]. Besides, the 50% inhibitory concentration (IC50) in assay [3] is 500 nM.

The values are drawn from ChEMBL document CHEMBL1147000, “Synthesis and evaluation of succinoyl-caprolactam gamma-secretase inhibitors” (Bioorg Med Chem Lett, 2006).
